Values of other authors, collected in US7442834B2, “Process suitable for industrial scale production of gabapentin” (priority 2006, dated 2008).

Tests used:
[1] = in vivo
[2] = from U.S. Pat. No. 6,518,456

| Compound | LD50 (cytotoxicity) [1] [mg/kg] | isoelectric point (pH) [2] |
| --- | --- | --- |
| O=C1CC2(CCCCC2)CN1 [IV, 3,3-pentamethylenebutyrolactam] | 300 | – |
| NCC1(CC(=O)O)CCCCC1 [gabapentin (I), 1-(aminomethyl)-1-cyclohexaneacetic acid] | > 8000 | 7.1-7.2 |
